Measurements: US12606805B2, “Tymovirus virus and virus-like particles as nanocarriers for imaging and therapeutic agents” (priority 2017, dated 2026)

How the values were obtained:
[1] = tested on: A2780 (human ovarian cancer) cells; assay: MTT cell viability assay, DOX-PhMV versus DOX; assay type: cell-based; details: 24 h
Protocol: All assays were carried out at least three times.

[2] = target: T1, PhMV-derived VLPs (Physalis mottle virus, UniProt P36351); details: for Number of molecules loaded per VLP: 5000-fold molar excess per particle; for Number of guest molecules loaded per VLP (affinity of the VLPs): infusion overnight at room temperature, molar excess 500 to 10,000 per VLP
T1 construct: The coat protein gene (564 bp) was inserted into the vector pRSET-A and expressed in ClearColi BL21(DE3); made in house; host or cells: E. coli ClearColi BL21(DE3)
Protocol: The VLPs were loaded with rhodamine B, fluorescein, crystal violet, MTX dihydrochloride (all Sigma-Aldrich), PS (cationic zinc ethynylphenyl porphyrin, full name 5-(4-ethynylphenyl)-10,15,20-tris)4-methylpyridin-4-ium-1-yl)porphyrin zinc(II) triiodide), or DOX hydrochloride (Indofine Chemical Company). The VLPs (1 mg/mL in KP buffer) were incubated with a molar excess of 500, 2500, 5000, or 10000 cargo molecules per particle overnight at room temperature in the dark, before purification over a 30% (w/v) sucrose cushion to remove excess reagents by ultracentrifugation at 52,000 rpm using a TLA 55 rotor (Beckman Coulter Inc.) at 4° C. for 1 h. PS-PhMV and DOX-PhMV were synthesized for further characterization using a 5000-fold molar excess.
A NanoDrop 2000 spectrophotometer (Thermo Fisher Scientific) was used to characterize the UV/visible spectra of native and modified VLPs. The dye load was determined using the protein concentration (measured using the Bradford assay), the Beer-Lambert law and the following dye-specific extinction coefficients: rhodamine B, F(553 nm)=116,000 M^−1 cm^−1; DOX, ε(496 nm)=11,500 M^−1 cm^−1; crystal violet, ε(590 nm)=87,000 M^−1 cm^−1; PS, ε(450 nm)=195,000 M^−1 cm^−1; MTX, ε(622 nm)=25,000 M^−1 cm^−1; sulfo-Cy5 NHS ester, ε(646 nm)=271,000 M^−1 cm^−1; Cy5.5-maleimide, 8(673 nm)=209,000 M^−1 cm^−1. The following molecular weights were used: PhMV=4.7×10^6 g mol^−1; rhodamine B=479.02 g mol^−1; DOX=579.98 g mol^−1; crystal violet=407.98 g mol^−1; PS=1130 g mol^−1; mitoxantrone=517.4 g mol^−1; Cy5=777.95 g mol^−1; Cy5.5=741.36 g mol^−1; Biotin NHS ester=341.38 g mol^−1; Biotin maleimide=451.54 g mol^−1.
Intact VLPs were incubated in a bathing solution containing the guest molecule at various molar excesses (500, 2500, 5000 and 10,000 molecules per VLP) in KP buffer with 10% (v/v) DMSO overnight at room temperature. After the reaction, excess guest molecules were removed by ultracentrifugation and the amount of protein and cargo was quantified by the Bradford assay and UV/visible spectroscopy, respectively. We applied the Beer-Lambert law and the specific extinction coefficient of each guest molecule to determine the number of cargo molecules per VLP (FIG. 5).

[3] = tested on: PC-3 cells; assay: LIVE/DEAD assay after photodynamic therapy; assay type: cell-based, human
Protocol: PC-3 cells were seeded (20,000 cells/500 μL RPMI/well) in a 24-well plate overnight. The cells were washed twice in PBS and incubated for 8 h in triplicates with 5.0 μM PS, 5.0 μM PS-PhMV, or the corresponding concentration of unloaded VLPs ([…] or ˜0.19 mg/mL). After washing twice in PBS, 500 μL RPMI medium was added. Photodynamic therapy was then applied using a white light source (Phillips Silhouette High Output F39T5/841 HO, Alto collection, ˜10 mW cm^−2) for 30 min (18.1 J cm^−2 at 430 nm) and cells were incubated for a further 48 h in the dark. Cell viability was determined using a LIVE/DEAD assay for mammalian cells (Thermo Fisher Scientific) following the manufacturer's procedures for cell staining, and cells were observed under a Zeiss Axio Observer Z1 motorized FL inverted microscope.

[4] = tested on: PC-3 cells; assay: MTT cell viability assay after photodynamic therapy
Protocol: PC-3 cells were seeded (5000 cells/100 μL RPMI 1640/well) in a 96-well plate overnight. After two PBS washes to remove unbound and dead cells, free PS, or PS-PhMV was added to the cells in triplicate at concentrations of 0.01, 0.025, 0.05, 0.1, 0.25, 0.5, 1, 2.5 and 5.0 μM PS, and incubated for 8 h. Untreated cells and cells treated with unloaded VLPs at the equivalent protein concentration to PS-PhMV particles at the highest dose of PS were also used as controls. Free particles were washed with PBS and 100 μL of fresh medium was added. The cells were then illuminated with white light for 30 min as above. In parallel, a duplicate plate was prepared and kept in the dark as a negative control. Following phototherapy, cells were incubated for another 48 h in the dark, and their viability was subsequently measured using an MTT cell proliferation assay kit (ATCC) based on the manufacturer's instructions. A Tecan Infinite 200 PRO multimode plate reader was used to measure absorbance at 570 nm, and the percent cell viability was normalized to the untreated control. All assays were carried out at least three times.

T1 sequence (P36351 whole entry, the tested form may be a part): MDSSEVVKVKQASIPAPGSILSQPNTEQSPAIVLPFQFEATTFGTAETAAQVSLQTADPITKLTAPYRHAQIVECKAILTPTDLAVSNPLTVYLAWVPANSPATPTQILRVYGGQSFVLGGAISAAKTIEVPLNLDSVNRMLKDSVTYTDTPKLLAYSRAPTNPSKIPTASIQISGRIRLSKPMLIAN

COc1cccc2c1C(=O)c1c(O)c3c(c(O)c1C2=O)C[C@@](O)(C(=O)CO)C[C@@H]3O[C@H]1C[C@H](N)[C@H](O)[C@H](C)O1 [DOX, doxorubicin]
IC50 (MTT) [1]: equivalent
Number of molecules loaded per VLP [2]: 600-800 molecules per VLP
Number of guest molecules loaded per VLP (affinity of the VLPs) [2]: 750 molecules per particle

CN(C)c1ccc(C(=C2C=CC(=[N+](C)C)C=C2)c2ccc(N(C)C)cc2)cc1 [crystal violet]
Number of guest molecules loaded per VLP (affinity of the VLPs) [2]: 2000 molecules per particle

CCN(CC)c1ccc2c(-c3ccccc3C(=O)O)c3ccc(=[N+](CC)CC)cc-3oc2c1.[Cl-] [rhodamine B]
Number of guest molecules loaded per VLP (affinity of the VLPs) [2]: ~200 molecules per particle

C#Cc1ccc(C2=C3C=CC(=N3)C(c3cc[n+](C)cc3)=c3ccc4[n]3[Zn][n]3c2ccc3C(c2cc[n+](C)cc2)=C2C=CC(=N2)C=4c2cc[n+](C)cc2)cc1.[I-].[I-].[I-] [PS]
Cell viability (LIVE/DEAD), dark controls ([3]; 5.0 μM, 8 h, maintained in the dark): 100%
Cell viability (LIVE/DEAD), illuminated ([3]; 5.0 μM, 8 h, white light 30 min): 0%
Cytotoxicity of dark controls (LIVE/DEAD) ([3]; dark controls): no cytotoxicity
Cytotoxicity of dark controls (MTT) ([4]; PC-3 cells kept in the dark): no cell killing
IC50 ([4]; read-out: IC50 (cell killing, MTT), PC-3 cells, 8 h incubation, 30 min white light illumination): 50 nM
Number of molecules loaded per VLP [2]: 160-180 molecules per VLP
Number of guest molecules loaded per VLP (affinity of the VLPs) [2]: ~200 molecules per particle

O=C1c2c(O)ccc(O)c2C(=O)c2c(NCCNCCO)ccc(NCCNCCO)c21 [MTX, mitoxantrone]
Number of guest molecules loaded per VLP (affinity of the VLPs) [2]: 450 molecules per particle
